Values after ≈ are worked out from the molar mass of the structure shown. Where two headings read alike, the source gives them in different places.
Key:
B. fragilis = experiment: Spontaneous mutation frequency and mutation prevention concentration (MPC); format: cell-based; conditions: B. fragilis ATCC 25285
Text: As used herein, “spontaneous mutation frequency” refers to the rate at which mutations arise in a bacterium that can lead to resistance to develop to an antimicrobial agent. “Mutation prevention concentration” or “MPC” refers to the lowest concentration of antimicrobial agent above which the selective proliferation of resistant mutants is expected to occur only rarely.

Bacteroides spp. = experiment: Spontaneous mutation frequency assay; format: cell-based
Protocol: Initial values of the MIC were determined by agar dilution in accordance with guidelines from the Clinical and Laboratory Standards Institute (CLSI; (1) “Methods for Dilution Antimicrobial Susceptibility Tests for Bacteria That Grow Aerobically; Approved Standard; 11th ed.,” CLSI standard M07, 2018; (2) “Methods for Antimicrobial Susceptibility Testing of Anaerobic Bacteria; Approved Standard—Eighth Edition,” CLSI document M11-A8, 2012.).
The agar plates were prepared by mixing a ratio of 1.0 mL of concentrated drug to 49.0 mL of the appropriate molten (47° C.) agar; the drug-supplemented agar was mixed, poured into 15-by-150 mm petri dishes and allowed to solidify and dry at room temperature prior to inoculation. […] Each plate was allowed to cool at room temperature for at least 1 hr.
The isolates were streaked onto the appropriate agar medium and incubated for 20 hr (aerobes) or 48 hr (Bacteroides under anaerobic conditions). Using a sterile swab, several well-isolated colonies were removed and resuspended in sterile saline at a heavy cell density. Each plate was inoculated with 0.5 mL of the cell suspension (each test concentration was inoculated in duplicate). The target inoculum for each spontaneous mutation plate was 10^9-10 CFU. In addition, a portion of the inoculum from each isolate was enumerated by making dilutions, spreading on agar and counting colonies.
Once the inoculum was absorbed into the agar, the plates were incubated at 35° C. Aerobes were examined at 24 and 48 hr, and resulting colonies were counted. Bacteroides were incubated anaerobically for 48-72 hr in the anaerobe chamber and colonies were counted.
Colony counts from plates used to enumerate the initial inoculum density and from the resulting spontaneous mutation frequency test plates were determined. The inoculum size was calculated as CFU inoculated per plate. The spontaneous mutation frequency was calculated using the counts from duplicate spontaneous mutation assay test plates as follows:
If there were no colonies on the antibiotic selection plates, the spontaneous mutation frequency was reported as less than the frequency observed with one colony to indicate that the spontaneous mutation frequency was less than the limit of detection (one CFU). […] The mutation prevention concentration (MPC) was reported as the lowest concentration for which no mutants were selected.

[1] = test system: E. coli (ATCC 25922, ATCC 35218, MMX 1312); conditions: cited from earlier work
Staphylococcus aureus [2] = conditions: cited from earlier work
XDR Enterobacteriaceae = conditions: cited from earlier work
Klebsiella spp. [3] = conditions: cited from earlier work
Citrobacter spp. [4] = conditions: cited from earlier work
Citrobacter spp. [5] = conditions: cited from earlier work; remark: listed apart in the source
Proteus mirabilis [6] = conditions: cited from earlier work
Proteus mirabilis [7] = conditions: cited from earlier work; remark: listed apart in the source
Pseudomonas aeruginosa = conditions: cited from earlier work
Bacteroides fragilis = conditions: cited from earlier work
Bacteroides vulgatus = conditions: cited from earlier work
Fusobacterium spp = conditions: cited from earlier work
Staphylococcus aureus [8] = conditions: cited from earlier work; remark: listed apart in the source
Escherichia coli = conditions: cited from earlier work
Clostridium spp. = conditions: cited from earlier work
Staphylococcus aureus [9] = conditions: cited from earlier work; remark: listed apart in the source
Enterobacteriaceae = conditions: cited from earlier work
Klebsiella spp. [10] = conditions: cited from earlier work; remark: listed apart in the source
Bacteroides spp = conditions: cited from earlier work
Bacteroides ovatus = conditions: cited from earlier work
Prevotella spp. = conditions: cited from earlier work
[11] = rifaximin selection 4X MIC, 1 μg/mL
[12] = rifaximin selection 8X MIC, 2 μg/mL

In the case of `C[C@@H](O)[C@H]1C(=O)N2C(C(=O)O)=C(S[C@@H]3CN[C@H](C(=O)N(C)C)C3)[C@H](C)[C@H]12` [meropenem], the MPC (B. fragilis) is reported as 0.5 µg/mL, the “Average Count” value (B. fragilis; selection 4X MIC, 0.5 μg/mL) is reported as 0 CFU and the “Count 1” value (B. fragilis; selection 4X MIC, 0.5 μg/mL) is reported as 0 CFU. For the same molecule, the “Count 2” value (B. fragilis; selection 4X MIC, 0.5 μg/mL) was 0 CFU, the “Spontaneous Mutation Frequency” value (B. fragilis; selection 4X MIC, 0.5 μg/mL) was ≤1.48 × 10^−10 and the “Average Count” value (B. fragilis; selection 8X MIC, 1 μg/mL) was 0 CFU. For the same molecule, the “Count 1” value (B. fragilis; selection 8X MIC, 1 μg/mL) was 0 CFU, the “Count 2” value (B. fragilis; selection 8X MIC, 1 μg/mL) was 0 CFU and the “Spontaneous Mutation Frequency” value (B. fragilis; selection 8X MIC, 1 μg/mL) was ≤1.48 × 10^−10. The “colonies on selection plates” value (Bacteroides spp.) was “No Streptococcus spp. or Bacteroides spp. colonies were selected”, the “CLSI QC range (agar MIC)” value [1] was 0.008 to 0.06 µg/mL and the MIC50 (Staphylococcus aureus [2]) was ≤0.12 µg/mL. The MIC90 (Staphylococcus aureus [2]) was 4 µg/mL (≈ 10.4 µM), the “% S” value (XDR Enterobacteriaceae) was 20.5% and the MIC50 (XDR Enterobacteriaceae) was 8 µg/mL (≈ 20.9 µM). For the same molecule, the MIC90 (XDR Enterobacteriaceae) was >8 µg/mL, the “% S” value (Klebsiella spp. [3]) was 78.3% and the MIC50 (Klebsiella spp. [3]) was ≤0.06 µg/mL. For the same molecule, the MIC90 (Klebsiella spp. [3]) was >8 µg/mL, the “% S” value (Citrobacter spp. [4]) was 86.4% and the MIC50 (Citrobacter spp. [4]) was ≤0.06 µg/mL. The MIC90 (Citrobacter spp. [4]) was 4 µg/mL (≈ 10.4 µM), the “% S” value (Citrobacter spp. [5]) was 99% and the MIC50 (Citrobacter spp. [5]) was 0.03 µg/mL (≈ 0.0782 µM). The MIC90 (Citrobacter spp. [5]) was 0.06 µg/mL (≈ 0.156 µM), the “% S” value (Proteus mirabilis [6]) was 95.5% and the MIC50 (Proteus mirabilis [6]) was 0.12 µg/mL (≈ 0.313 µM). The MIC90 (Proteus mirabilis [6]) was 0.25 µg/mL (≈ 0.652 µM), the “MIC range” value (Proteus mirabilis [6]) was 0.12 to 16 µg/mL and the “% S” value (Proteus mirabilis [7]) was 99.4%. For the same molecule, the MIC50 (Proteus mirabilis [7]) was 0.06 µg/mL (≈ 0.156 µM), the MIC90 (Proteus mirabilis [7]) was 0.12 µg/mL (≈ 0.313 µM) and the “% S” value (Pseudomonas aeruginosa) was 64.2%. For the same molecule, the MIC50 (Pseudomonas aeruginosa) was 1 µg/mL (≈ 2.61 µM), the MIC90 (Pseudomonas aeruginosa) was >8 µg/mL and the “% S” value (Bacteroides fragilis) was 94.5%. For the same molecule, the MIC50 (Bacteroides fragilis) was 0.25 µg/mL (≈ 0.652 µM), the MIC90 (Bacteroides fragilis) was 4 µg/mL (≈ 10.4 µM) and the “% S” value (Bacteroides vulgatus) was 100%. For the same molecule, the MIC50 (Bacteroides vulgatus) was 0.5 µg/mL (≈ 1.3 µM), the MIC90 (Bacteroides vulgatus) was 1 µg/mL (≈ 2.61 µM) and the “MIC range” value (Bacteroides vulgatus) was 0.125 to 1 µg/mL. The “% S” value (Fusobacterium spp) was 100%, the MIC50 (Fusobacterium spp) was 0.125 µg/mL (≈ 0.326 µM) and the MIC90 (Fusobacterium spp) was 0.25 µg/mL (≈ 0.652 µM). For the same molecule, the “MIC range” value (Fusobacterium spp) was ≤0.03 to 0.5 µg/mL.

For `CO/N=C(\C(=O)N[C@@H]1C(=O)N2C(C(=O)O)=C(CSc3nc(=O)c(=O)[nH]n3C)CS[C@H]12)c1csc(N)n1` [ceftriaxone], the “MPC (mutation prevention concentration)” value (Bacteroides spp.; B. vulgatus ATCC 8482) was 32 µg/mL, the Spontaneous Mutation Frequency (Bacteroides spp.; B. vulgatus ATCC 8482, 4× the MIC) was > 8.69×10^−8 and the Spontaneous Mutation Frequency (Bacteroides spp.; B. vulgatus ATCC 8482, 8× the MIC) was ≤ 1.74×10^−10. For the same molecule, the “CLSI QC range (agar MIC)” value [1] was 0.03 to 0.12 µg/mL, the “% S” value (Staphylococcus aureus [8]) was 54.5% and the MIC50 (Staphylococcus aureus [8]) was 4 µg/mL (≈ 7.21 µM). For the same molecule, the MIC90 (Staphylococcus aureus [8]) was >8 µg/mL, the “% S” value (Escherichia coli) was 87% and the MIC50 (Escherichia coli) was ≤0.25 µg/mL. The MIC90 (Escherichia coli) was 32 µg/mL (≈ 57.7 µM), the “% S” value (Clostridium spp.) was 75% and the MIC50 (Clostridium spp.) was 2 µg/mL (≈ 3.61 µM).

In the case of `CO[C@H]1/C=C/O[C@@]2(C)Oc3c(C)c(O)c4c(O)c(c5c(nc6cc(C)ccn65)c4c3C2=O)NC(=O)/C(C)=C\C=C\[C@H](C)[C@H](O)[C@@H](C)[C@@H](O)[C@@H](C)[C@H](OC(C)=O)[C@@H]1C` [rifaximin], the MFC (B. fragilis) is reported as >2 µg/mL, the “Average Count” value (B. fragilis; [11]) is reported as 11 CFU and the “Count 1” value (B. fragilis; [11]) is reported as 12 CFU. For the same molecule, the “Count 2” value (B. fragilis; [11]) was 10 CFU, the “Spontaneous Mutation Frequency” value (B. fragilis; [11]) was 1.63 × 10^−9 and the “Average Count” value (B. fragilis; [12]) was 8 CFU. The “Count 1” value (B. fragilis; [12]) was 6 CFU, the “Count 2” value (B. fragilis; [12]) was 9 CFU and the “Spontaneous Mutation Frequency” value (B. fragilis; [12]) was 1.19 × 10^−9. The “% S” value (Staphylococcus aureus [9]) was 100%, the MIC50 (Staphylococcus aureus [9]) was ≤0.25 µg/mL and the MIC90 (Staphylococcus aureus [9]) was ≤0.25 µg/mL. For the same molecule, the “MIC range” value (Staphylococcus aureus [9]) was ≤0.25 µg/mL, the MIC50 (Enterobacteriaceae) was 32 µg/mL (≈ 40.7 µM) and the MIC90 (Enterobacteriaceae) was >128 µg/mL. The “% S” value (Klebsiella spp. [10]) was 43.6%, the MIC50 (Klebsiella spp. [10]) was 64 µg/mL (≈ 81.4 µM) and the MIC90 (Klebsiella spp. [10]) was 128 µg/mL (≈ 163 µM). The “MIC range” value (Klebsiella spp. [10]) was 8 to 128 µg/mL, the MIC50 (Bacteroides spp) was >1024 µg/mL and the MIC90 (Bacteroides spp) was >1024 µg/mL. For the same molecule, the MIC50 (Bacteroides ovatus) was 1 µg/mL (≈ 1.27 µM), the MIC90 (Bacteroides ovatus) was 1 µg/mL (≈ 1.27 µM) and the MIC50 (Prevotella spp.) was 0.25 µg/mL (≈ 0.318 µM). The MIC90 (Prevotella spp.) was 0.5 µg/mL (≈ 0.636 µM) and the “MIC range” value (Prevotella spp.) was 0.25 to 1 µg/mL.

— patent US20210386367A1, “DEVICES AND SYSTEMS FOR GASTROINTESTINAL MICROBIOME DETECTION AND MANIPULATION” (Progenity, Inc., priority 2018, published 2021)
